From patent US20260151434A1, “COMPOSITIONS FOR THE TREATMENT OF DISEASE” (priority 2022, published 2026) come the findings set out here.

Bridge positions count the residues as written; N and C are the ends. Square brackets hold non-standard residues; d marks the D form. Triazole bridges read from a SMILES are 1,4-linked. Peptide text beside a SMILES is read from it. * marks the point of attachment. Benzoyl(3,5-(OH)2) = O=C(c1cc(O)cc(O)c1)*; Lys(N3) = [N-]=[N+]=NCCCC[C@H](N)C(=O)O; dPhe(4-F) = N[C@H](Cc1ccc(F)cc1)C(=O)O; Nle = CCCC[C@H](N)C(=O)O; Pra = C#CC[C@H](N)C(=O)O

For data set [1], the system named is iPSC-derived ocular stem cells (ABC-101). As to the kind of experiment: Apo-ONE Homogeneous Caspase-3/7 assay after A23187 challenge of ocular stem cells. The format is cell-based. From the text:
To assess the cytoprotective properties of the α-MSH peptide analogues in-vitro the present inventors tested their modulatory influence on reactive oxygen species (ROS) production and caspase activation in response to cellular stress. For these in-vitro challenge assays, the present inventors induced cellular stress using tert-Butyl hydroperoxide (TBHP) or calcium ionophore (A23187), compounds which are respectively known to induce oxidative and metabolic stress. Oxidative stress was correlated to an increase of ROS within cells. […] Within the current assays, the present inventors monitored ROS accumulation and subsequent caspase activity as readouts of cellular stress and eventual cell death. […] Both the ROS and caspase readouts were obtained by using commercially available reagent kits, which are based on a fluorescent indicator readout for each metric per the supplier's protocol. […] Readouts are routinely taken at 80 min and 150 min after incubation is started. Following a similar layout as with the ROS induction assay, the present inventors subsequently assessed induction of Caspase 3/7 activity following a 1 hour challenge with 2.5 uM A23187. Readings from Caspase 3/7 activation were taken at 80 and 150 minutes post-substrate addition and readouts were compared to non-supplemented controls.

Data set [2] has the same test system. As to the kind of experiment: ROS assay after TBHP challenge of ocular stem cells. It counts as cell-based. The settings on record: 550 uM TBHP challenge, ROS at 3 hours and 4 hours, normalized to challenged wells without peptide, FIGS. 7-8. From the text:
To assess the cytoprotective properties of the α-MSH peptide analogues in-vitro the present inventors tested their modulatory influence on reactive oxygen species (ROS) production and caspase activation in response to cellular stress. For these in-vitro challenge assays, the present inventors induced cellular stress using tert-Butyl hydroperoxide (TBHP) or calcium ionophore (A23187), compounds which are respectively known to induce oxidative and metabolic stress. Oxidative stress was correlated to an increase of ROS within cells. […] Within the current assays, the present inventors monitored ROS accumulation and subsequent caspase activity as readouts of cellular stress and eventual cell death. […] Both the ROS and caspase readouts were obtained by using commercially available reagent kits, which are based on a fluorescent indicator readout for each metric per the supplier's protocol. […] Since the assay uses a cell-permeable dye, the readout can be performed within live cells and results in a red fluorescent signal (Ex/Em=520/605 nm), which is correlated to the amount of accumulated ROS within each well. Within the present protocol, the inventors read ROS accumulation over time, starting from 1 hour after incubation up to 4 hours post-incubation. The ocular stem cells (ABC-101 cells) were challenged with 550 uM of TBHP and ROS production was assessed over several hours. […]

Another data set is described as follows: Solubility comparison. It counts as physicochemical. An excerpt:
The MCR agonists in vivo ocular permeability should allow for concentrations well exceeding EC50 values.

For data set [3] the following is noted: rabbit, in vivo.
Experimental: (§1) Animals were acclimated to the study and, upon completion of the acclimation period, each animal was physically examined for determination of suitability for study participation. […] Animals were uniquely identified by corresponding cage card number and ear tag.
(§2) The designated peptide formulations (35 μL) were administered to the eye of each animal using a calibrated pipette. With the animal manually restrained, the upper eyelid of the eye was gently elevated to expose the cornea. Treatment was then applied to the cornea without contacting the eye with the pipette tip. The animal was then allowed to blink several times while still manually restrained to distribute the applied solution over the eye prior to being returned to the cage. Treatment was administered once daily (QD) or twice daily (BID) with approximately 8 hours between BID doses. Group 1 was administered a single dose, Group 2 received 4 doses, Group 3 received 8 doses. Samples were collected from 3 animals/group 30 min, 1 hr, 2 hr, 4 hr, and 8 hr post-last dose and from 2 animals/group 24 hours post-last dose.
(§3) Following euthanasia, eyes were enucleated, rinsed 2× with fresh ice-cold PBS, and dabbed dry with gauze. Aqueous humor was removed via a 27- or 30-gauge syringe, placed into a pre-weighted 2 mL polypropylene tube, reweighed, and snap frozen by immersion in liquid nitrogen. The cornea was harvested fresh from each eye, placed into a pre-weighted re-enforced 2 mL polypropylene tube, re-weighed and snap frozen in liquid nitrogen. The remaining ocular tissues were discarded. Ocular samples were stored −80° C. All samples were placed into individual vials and weighed. Aqueous humor and cornea samples were collected.
In data set [4] the test system is corneal edema following descemetorhexis without endothethelial keratoplasty (DWEK) surgery in rabbits. The experiment in a line: Corneal edema and wound healing after DWEK surgery, topical administration, rabbit. It counts as in vivo. The method, then: The objective of the present study was to evaluate the efficacy of the α-MSH peptide analogues in reducing corneal edema following descemetorhexis without endothethelial keratoplasty (DWEK) surgery in rabbits. […] Treatment was administered once (QD) or twice daily (BID) with approximately 6-8 hours between each BID dose.
The rabbits were subjected to a surgical procedure prior to administering topical treatment. The animals received buprenorphine (0.01-0.05 mg/kg SC) and were sedated immediately prior to the procedure with ketamine/xylazine cocktail (20-50/4-10 mg/kg IM). Aseptic precautions were taken for the surgical procedure. […] Sterile eyewash was then used to irrigate the ocular surface of the left eye. […] The animal's corneal epithelium was marked with a circular ring (5 mm) to create a template for resection of the host tissue. […] Descemet's membrane was scored peripherally using a reverse Terry-Sinskey hook, and then Descemet's membrane was peeled from the overlying stroma. Descemet's membrane was removed using forceps. Viscoelastic was removed by Irrigation Aspiration (IA) using balanced salt […] (BSS). One (1) ml of epinephrine 1:1000 and 0.5 ml of heparin (10,000 USP units/ml) was added to each 500 ml of irrigation solution (BSS) to facilitate pupil dilation, control inflammation, and reduce fibrin formation. […]

The next data set can be described thus: in vivo. The following applies: rabbit, topical or ocular, 35 uL of 5 mg/ml solution per eye per dose.

Experimental for in vivo: as §1, §2, §3

As to `CCCC[C@H](NC(=O)c1cc(O)cc(O)c1)C(=O)N[C@H]1CCCCn2cc(nn2)C[C@@H](C(N)=O)NC(=O)[C@H](Cc2c[nH]c3ccccc23)NC(=O)[C@H](CCCNC(=N)N)NC(=O)[C@@H](Cc2ccccc2)NC(=O)[C@H](Cc2c[nH]cn2)NC1=O` [Peptide K174, HyBA-Nle-[Lys(N3)-His-DPhe-Arg-Trp-Pra]-NH2] ({Benzoyl(3,5-(OH)2)}-[Nle][Lys(N3)]H[dF]RW[Pra]-NH2; triazole 2-7), in data set [1] (100 nM peptide, A23187 challenge, FIG. 9), the “percent increase in caspase activation over control” value is on record as “lowest percent increase over control”. Moreover, the “Caspase 3/7 activity (protection against apoptosis induction)” value in data set [1] (1 hour challenge with 2.5 uM A23187, readings at 80 and 150 minutes, vs non-supplemented controls, FIGS. 9-10) is reported as “highest degree of protection against apoptosis induction”. In data set [2], the “protection against ROS accumulation” value is given as “protective against ROS accumulation down to the low pM range”.
In general, Solubility refers to the concentration that dissolves in the medium under given conditions. In the case of `CCCC[C@H](NC(C)=O)C(=O)N[C@H]1CCCCn2cc(nn2)C[C@@H](C(N)=O)NC(=O)[C@H](Cc2c[nH]c3ccccc23)NC(=O)[C@H](CCCNC(=N)N)NC(=O)[C@@H](Cc2ccccc2)NC(=O)[C@H](Cc2cnc[nH]2)NC1=O` [Peptide K110, Ac-Nle-[Lys(N3)-His-DPhe-Arg-Trp-Pra]-NH2] (Ac-[Nle][Lys(N3)]H[dF]RW[Pra]-NH2; triazole 2-7), the Solubility in “Solubility comparison” was over 5 mg/mL.
As for `CCCC[C@H](NC(=O)c1cc(O)cc(O)c1)C(=O)N[C@H]1CCCCn2cc(nn2)C[C@@H](C(N)=O)NC(=O)[C@H](Cc2c[nH]c3ccccc23)NC(=O)[C@H](CCCNC(=N)N)NC(=O)[C@@H](Cc2ccc(F)cc2)NC(=O)[C@H](Cc2c[nH]cn2)NC1=O` [Peptide K173, HyBA-Nle-[Lys(N3)-His-Dphe(4-F)-Arg-Trp-Pra]-NH2] ({Benzoyl(3,5-(OH)2)}-[Nle][Lys(N3)]H[dPhe(4-F)]RW[Pra]-NH2; triazole 2-7), in data set [3], the “aqueous humor (AH) concentrations with repeated dosing” value is “increase with repeated dosing” and the “levels after 24 hours” value is on record as “measurable levels were detected after 24 hours in all dose groups”. Moreover, in data set [3] (topical or ocular), the “ocular surface retention and Tmax” value was “prolonged ocular surface retention and Tmax”. Further, the “wound healing (rate of wound closure, corneal flat mount)” value in data set [4] (3 animals per group, FIGS. 12A, 12B) was “enhanced wound healing”. In data set [4] (topical 1 mg/ml or 5 mg/ml QD or BID, FIG. 11), the “corneal edema (corneal stromal thickness by OCT)” value is on record as “decreased corneal edema”. Also, the level at 24 h in “in vivo” (K173 Concentrations (ng/mL) in Rabbit Aqueous Humor OD Sample) stood at 3.34 ng/mL. The level at 24 h in the data set “in vivo” (K173 Concentrations (ng/mL) in Rabbit Aqueous Humor OS Sample) was determined as 3.94 ng/mL.
